Measurements published in US10781189B2, “1,2,4-Oxadiazole and thiadiazole compounds as immunomodulators” (Aurigene Discovery Technologies Limited, priority 2015, dated 2020).

Target: T1, Recombinant mouse PD-L1 (Mus musculus, UniProt Q9EP73)
T1 construct: Fc (Fc chimera); purchased R&D Systems 1019-B7-100
Test: Rescue of mouse splenocyte proliferation in the presence of recombinant PD-L1 (CFSE proliferation assay)
Type: cell-based
Details: 100 nM compound; CFSE-labelled C57 BL6 mouse splenocytes + anti-CD3/CD28 + PD-L1 (100 ng/mL), 72 h; normalised to stimulated splenocytes as 100%; read-out: Percent rescue of splenocyte proliferation (@100 nM)
Procedure: Example 15: Rescue of Mouse Splenocyte Proliferation in the Presence of Recombinant PD-L1
Recombinant mouse PD-L1 (rm-PDL-1, cat no: 1019-B7-100; R&D Systems) were used as the source of PD-L1.
Mouse splenocytes harvested from 6-8 weeks old C57 BL6 mice; RPMI 1640 (GIBCO, Cat #11875); DMEM with high glucose (GIBCO, Cat # D6429); Fetal Bovine Serum [Hyclone, Cat # SH30071.03]; Penicillin (10000 unit/mL)-Streptomycin (10,000 μg/mL) Liquid (GIBCO, Cat #15140-122); MEM Sodium Pyruvate solution 100 mM (100×), Liquid (GIBCO, Cat #11360); Nonessential amino acid (GIBCO, Cat #11140); L-Glutamine (GIBCO, Cat #25030); Anti-CD3 antibody (eBiosciences—16-0032); Anti-CD28 antibody (eBiosciences—16-0281); ACK lysis buffer (1 mL) (GIBCO, Cat #-A10492); Histopaque (density-1.083 gm/mL) (SIGMA 10831); Trypan blue solution (SIGMA-T8154); 2 mL Norm Ject Luer Lock syringe-(Sigma 2014-12); 40 μm nylon cell strainer (BD FALCON 35230); Hemacytometer (Bright line-SIGMA Z359629); FACS Buffer (PBS/0.1% BSA): Phosphate Buffered Saline (PBS) pH 7.2 (HiMedia TS1006) with 0.1% Bovine Serum Albumin (BSA) (SIGMA A7050) and sodium azide (SIGMA 08591); 5 mM stock solution of CFSE: CFSE stock solution was prepared by diluting lyophilized CFSE with 180 μL of Dimethyl sulfoxide (DMSO C2H6SO, SIGMA-D-5879) and aliquoted in to tubes for further use. Working concentrations were titrated from 10 μM to 1 μM. (eBioscience—650850-85); 0.05% Trypsin and 0.02% EDTA (SIGMA 59417C); 96-well format ELISA plates (Corning CLS3390); BD FACS caliber (E6016); Recombinant mouse B7-H1/PDL1 Fc Chimera, (rm-PD-L1 cat no: 1019-B7-100).
Splenocytes harvested in a 50 mL falcon tube by mashing mouse spleen in a 40 μm cell strainer were further treated with 1 mL ACK lysis buffer for 5 min at room temperature. After washing with 9 mL of RPMI complete media, cells were re-suspended in 3 mL of 1×PBS in a 15 mL tube. 3 mL of Histopaque was added carefully to the bottom of the tube without disturbing overlaying splenocyte suspension. After centrifuging at 800×g for 20 min at room temperature, the opaque layer of splenocytes was collected carefully without disturbing/mixing the layers. Splenocytes were washed twice with cold 1×PBS followed by total cell counting using Trypan Blue exclusion method and used further for cell based assays.
Splenocytes were cultured in RPMI complete media (RPMI+10% fetal bovine serum+1 mM sodium pyruvate+10,000 units/mL penicillin and […] streptomycin) and maintained in a CO2 incubator with 5% CO2 at 37° C.
CFSE is a dye that passively diffuses into cells and binds to intracellular proteins. 1×10^6 cells/mL of harvested splenocytes were treated with 5 μM of CFSE in pre-warmed 1×PBS/0.1% BSA solution for 10 min at 37° C. Excess CFSE was quenched using 5 volumes of ice-cold culture media to the cells and incubated on ice for 5 min. CFSE labelled splenocytes were further given three washes with ice cold complete RPMI media. CFSE labelled 1×10^5 splenocytes added to wells containing either MDA-MB231 cells (1×10^5 cells cultured in high glucose DMEM medium) or recombinant human PDL-1 (100 ng/mL) and test compounds. Splenocytes were stimulated with anti-mouse CD3 and anti-mouse CD28 antibody (1 μg/mL each) and the culture was further incubated for 72 h at 37° C. with 5% CO2. Cells were harvested and washed thrice with ice cold FACS buffer and % proliferation was analysed by flow cytometry with 488 nm excitation and 521 nm emission filters.
Percent splenocyte proliferation was analysed using cell quest FACS program and percent rescue of splenocyte proliferation by compound was estimated after deduction of % background proliferation value and normalising to % stimulated splenocyte proliferation (positive control) as 100%.
Stimulated splenocytes: Splenocytes+anti-CD3/CD28 stimulation
Background proliferation: Splenocytes+anti-CD3/CD28+PD-L1
Compound proliferation: Splenocytes+anti-CD3/CD28+PD-L1+Compound […]

T1 sequence (Q9EP73 with tags, fused parts or gaps limits assumed): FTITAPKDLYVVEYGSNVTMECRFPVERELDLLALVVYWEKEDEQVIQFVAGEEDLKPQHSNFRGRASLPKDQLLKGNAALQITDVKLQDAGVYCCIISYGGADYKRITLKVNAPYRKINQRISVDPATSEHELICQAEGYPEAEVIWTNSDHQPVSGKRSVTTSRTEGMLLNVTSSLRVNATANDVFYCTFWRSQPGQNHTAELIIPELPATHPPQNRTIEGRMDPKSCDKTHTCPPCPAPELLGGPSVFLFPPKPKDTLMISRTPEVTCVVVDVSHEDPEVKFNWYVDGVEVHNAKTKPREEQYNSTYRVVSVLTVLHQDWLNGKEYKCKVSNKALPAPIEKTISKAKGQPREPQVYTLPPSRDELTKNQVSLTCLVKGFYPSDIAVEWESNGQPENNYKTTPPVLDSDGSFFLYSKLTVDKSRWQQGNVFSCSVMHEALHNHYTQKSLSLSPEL

First: CC(O)[C@H](N)c1noc([C@H](Cc2ccccc2)NC(=O)N2CCC[C@H]2C(=O)O)n1 (stereo partly shown) [Compound 62]
Second: CC(O)[C@H](NC(=O)N[C@@H](CC(N)=O)c1noc([C@@H](N)CO)n1)C(=O)O (stereo partly shown) [Compound 83]
The activation at 0.1 µM of the first is higher: 35% for the first, 34% for the second.

Going from CCCNC(=O)CC[C@H](NC(=O)N[C@H](C(=O)O)C(C)O)c1nc([C@@H](N)CO)no1 (stereo partly shown) [Compound 75] to CCCCCCNC(=O)CC[C@@H](NC(=O)N[C@H](C(=O)O)C(C)O)c1nc([C@@H](N)CO)no1 (stereo partly shown) [Compound 76], the activation at 0.1 µM falls from 119% to 67%.

First: CCCCCCNC(=O)C[C@H](NC(=O)N[C@H](C(=O)O)C(C)O)c1nc([C@@H](N)CO)no1 (stereo partly shown) [Compound 77]
Second: CCCCCOC(=O)[C@@H](NC(=O)N[C@@H](CC(N)=O)c1nc([C@@H](N)CO)no1)C(C)O (stereo partly shown) [Compound 80]
The activation at 0.1 µM of the first is higher: 75% for the first, 55% for the second.

First: CCCCCCNC(=O)CC[C@H](NC(=O)N[C@@H](CCC(N)=O)C(=O)N[C@H](C(=O)O)C(C)O)c1nc([C@@H](N)CO)no1 (stereo partly shown) [Compound 78]
Second: CC(O)[C@H](NC(=O)[C@H](CCC(N)=O)NC(=O)N[C@@H](CC(N)=O)c1nc([C@@H](N)CO)no1)C(=O)O (stereo partly shown) [Compound 81]
The activation at 0.1 µM of the first is higher: 42% for the first, 18% for the second.

First: CC(O)[C@@H](NC(=O)N[C@@H](CC(N)=O)c1nc([C@@H](N)CO)no1)c1nnc(CO)o1 (stereo partly shown) [Compound 79]
Second: CC(C)C[C@H](N)c1noc([C@H](CC(N)=O)NC(=O)CNC(=O)N[C@H](C(=O)O)C(C)O)n1 (stereo partly shown) [Compound 82]
The activation at 0.1 µM of the first is higher: 37% for the first, 12% for the second.

Compared with NC(=O)C[C@H](NS(=O)(=O)C1CC1)c1nc([C@@H](N)CO)no1 [Compound 84], NC(=O)C[C@H](NS(=O)(=O)C1CCCC1)c1nc([C@@H](N)CO)no1 [Compound 88] is lower in activation at 0.1 µM: 71% for the first, 10% for the second.

Going from NC(=O)C[C@H](NS(=O)(=O)C1CCCCC1)c1nc([C@@H](N)CO)no1 [Compound 89] to CC(=O)Nc1ccc(S(=O)(=O)N[C@@H](CC(N)=O)c2nc([C@@H](N)CO)no2)cc1 [Compound 90], the activation at 0.1 µM rises from 54% to 66%.

First: Cn1cc(CN[C@@H](CC(N)=O)c2nc([C@@H](N)CO)no2)cn1 [Compound 95]
Second: NCCCC[C@H](N)c1noc([C@H](CCC(N)=O)NS(=O)(=O)N[C@@H](CO)C(=O)O)n1 [Compound 103]
The activation at 0.1 µM of the first is lower: 30% for the first, 79% for the second.
